Source: ChEMBL document CHEMBL1201862, “PubChem BioAssay data set” (2004)
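How tested: cells in 96-well plates exposed to compound for 48 hours at five concentrations. GI50 is the concentration that inhibits growth by half.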 Active and inactive are the calls of the source. No stated cut-off is given here; in the data, active = GI50 up to about 1.1 µM and inactive = higher.

Experiments:
Experiment in all cases: NCI-60 cell line screen, 48 h
[1] = test system: SN12C
[2] = test system: NCI-H460
[3] = test system: ACHN
[4] = test system: CAKI-1
[5] = test system: OVCAR-4
[6] = test system: SK-OV-3
[7] = test system: U-251
[8] = test system: SNB-75
[9] = test system: HOP-62
[10] = test system: BT-549
[11] = test system: RXF 393
[12] = test system: DU-145
[13] = test system: SK-MEL-2
[14] = test system: EKVX
[15] = test system: COLO 205
[16] = test system: Malme-3M
[17] = test system: NCI-H522
[18] = test system: SK-MEL-28
[19] = test system: K562
[20] = test system: SR

Measured: GI50

COc1ccc(-c2nc(O)c3ccccc3n2)c(OC)c1
inactive: [1] > 100 µM | [2] > 100 µM | [3] > 100 µM | [4] > 100 µM | [5] > 100 µM | [6] > 100 µM | [7] > 100 µM | [8] > 100 µM | [9] > 100 µM | [10] > 100 µM | [11] > 100 µM | [12] > 100 µM | [13] > 100 µM | [14] > 100 µM | [15] > 100 µM | [16] > 100 µM

Brc1ccc2c(-c3csc(-c4c[nH]c5ccccc45)n3)c[nH]c2c1
inactive: [1] 17.3 µM | [2] 16.1 µM | [3] 15.7 µM | [4] 15.8 µM | [5] 16 µM | [6] 18.9 µM | [7] 17.9 µM | [8] 24.4 µM | [17] 17.3 µM | [9] 15 µM | [10] 18.3 µM | [11] 22.4 µM | [18] 14.9 µM | [12] 18.8 µM | [14] 15.6 µM | [15] 12.8 µM | [16] 16.9 µM

CCSc1n/c(=C\c2ccc(N(C)C)cc2)c2nnnn12
inactive: [1] > 100 µM | [2] > 100 µM | [3] > 100 µM | [4] > 100 µM | [5] > 100 µM | [6] > 100 µM | [7] > 100 µM | [8] > 100 µM | [17] > 100 µM | [9] > 100 µM | [10] > 100 µM | [11] > 100 µM | [18] > 100 µM | [12] > 100 µM | [13] > 100 µM | [14] > 100 µM | [15] > 100 µM | [16] > 100 µM

O=C1CC(c2ccc(Cl)cc2)C2(C(=O)NC(=O)NC2=O)C(c2ccc(Cl)cc2)C1 (stereo not drawn)
inactive: [1] 21.6 µM | [2] 28.6 µM | [3] 49 µM | [4] 35.2 µM | [19] 7.5 µM | [5] 38.5 µM | [7] 27.5 µM | [8] 49.5 µM | [17] 17.5 µM | [9] 22.9 µM | [10] 30.7 µM | [11] 15 µM | [18] 18.2 µM | [12] 21.7 µM | [13] 15.6 µM | [14] 47.4 µM | [15] 20.2 µM | [16] 17.1 µM

N#CC(c1ccccc1)N(CCOCCOCCN(C(=O)c1cccc2ccccc12)C(C#N)c1ccccc1)C(=O)c1cccc2ccccc12 (stereo not drawn)
inactive: [1] > 100 µM | [2] 87.1 µM | [3] > 100 µM | [4] > 100 µM | [19] 42.4 µM | [5] > 100 µM | [6] > 100 µM | [7] > 100 µM | [8] > 100 µM | [10] > 100 µM | [11] > 100 µM | [18] > 100 µM | [12] > 100 µM | [13] > 100 µM | [14] > 100 µM | [15] 52.1 µM | [16] > 100 µM

Cc1cc(N(C)c2ccccc2)nc(N(C)c2ccccc2)n1
inactive: [1] 46.8 µM | [2] 49.9 µM | [20] 27.7 µM | [3] 28.4 µM | [4] > 100 µM | [19] 49.9 µM | [5] > 100 µM | [6] > 100 µM | [7] 30.7 µM | [8] 41.1 µM | [17] 36.9 µM | [9] 31.2 µM | [11] 22 µM | [18] 35.5 µM | [12] 92.3 µM | [13] 15.8 µM | [14] 36.1 µM | [15] 23.9 µM | [16] 26.9 µM

C#CCN(C(=O)C(F)(F)F)C(/C=C\C(=O)OC)(C(=O)OCC)C(=O)OCC
inactive: [1] > 100 µM | [2] > 100 µM | [3] > 100 µM | [19] > 100 µM | [5] > 100 µM | [6] > 100 µM | [7] > 100 µM | [8] > 100 µM | [17] > 100 µM | [9] > 100 µM | [10] > 100 µM | [11] > 100 µM | [18] > 100 µM | [12] > 100 µM | [13] > 100 µM | [14] > 100 µM | [15] > 10 µM | [16] > 100 µM
